# Like-named read-outs stand apart in the source and are kept apart here.
# Key:
# [1] = tested on: P. falciparum chloroquine-resistant strain FcB1-Columbia; test: Antiplasmodial screen at 10 µM and chemosensitivity assay (SYBR Green I), FcB1-Columbia; format: cell-based, Plasmodium falciparum
# Vero cells = test: Cytotoxicity assay (MTT); conditions: read-out: Cytotoxicity Mean IC50, Vero cell lines, 48 h, MTT
# Method: Vero cells were cultured in MEM (Dutscher, Brumath, France) supplemented with 10% fetal bovine serum, 1× non-essential amino acids, 100 U/mL, 100 µg/mL penicillin/streptomycin, and 2 mM L-glutamine at 37 °C in a humidified 5% CO2 atmosphere. […] At this time, each well was microscope-examined for detection of possible precipitate formation prior to remove the supernatant by flicking the plate. 100 µL of a 0.5 mg/mL PBS-dissolved MTT tetrazolium (stock solution at 5 mg/mL) was then added to each well [48]. The plates were then incubated for 1 h at 37 °C and 5% CO2 prior to removing the supernatant and adding 100 µL of DMSO. Plates were gently shaken to dissolve formazan crystals resulting from the MTT tetrazolium reduction by living cells and read at 570 nm with BioTek µQuant Microplate Spectrophotometer.
# Adult S. mansoni = test: In vitro antischistosomal activity on adult worms; format: cell-based, Schistosoma mansoni; conditions: for Mean (±SD) survival time – Adult S. mansoni / Time for the death of 100% worms: 100 µg/mL; for Mean (±SD) survival time – Adult S. mansoni: observation up to 8 h (Table S1); for Time for the death of 100% worms / S. mansoni Mean Survival Time: adult S. mansoni, observation up to 8 h; for S. mansoni Mean Survival Time: single dose 100 µg/mL
# Excerpt: The NMRI strain of Schistosoma mansoni was used for the experimentations. The parasite was maintained on an albino variety of Biomphalaria glabrata from Brazil (intermediate host) and in Golden Hamsters, Mesocricetus auratus (Janvier Labs, Le Genest-Saint-Isle, France). Detailed methods, for mollusk and hamster infections and for parasite recovery, were previously described.
# Adult worms were recovered between 42 and 47 days after infection by hepatic perfusion technique. Twenty to fifty adult worms were disposed in 12-well Falcon® plate containing 2 mL of RPMI 1640 (supplemented with L-glutamine and Hepes 25 mM) and stored in an incubator chamber (37 °C; 5% CO2). Drug preparation started with dissolution of the drug in DMSO to give a 100 mg/mL stock solution. The dilution was complemented with Tween 80 and RPMI in order to obtain the following final ratio dilution: RPMI 1640/Tween 80/DMSO, 1000/0.95/3.8, v/v/v. The drug solution was added to Falcon plates that contained adult worms. The S. mansoni cultures were then incubated with each drug at a final concentration of 100 µg/mL. Positive control was carried out with a solution of praziquantel (Merck KGaA, Darmstadt, Germany) at a concentration of 100 µg/mL. Negative control was carried out with the same RPMI 1640/Tween 80/DMSO solution, but without any drug. Each test was performed in duplicate. Every hour, moving worms were counted in order to define the percentage of survivors. Parasites showing no body contractions during a 30 s observation were considered as dead. Observations were extended to 8 h. Mean survival times (± standard deviation) were calculated for each drug using Kaplan–Meier survival analyses.
# [2] = Homolysis of the NO–C bond measured by EPR
# Method: Homolysis rate constants kd’ were measured by EPR and estimated using Equation (1) as reported many times in the literature. Further, Ea and kd were estimated using Equation (2). (1) ln([nitroxide]∞−[nitroxide]t/[nitroxide]∞)=−kd·t (2) Ea=−RT ln([…] kd′ )
# [3] = FcB1-Columbia strain, read-out: IC50 on P. falciparum
SMILES,"IC50 [1, 3] [µM]",Mean (±SD) survival time – Adult S. mansoni (Adult S. mansoni) [h],Time for the death of 100% worms (Adult S. mansoni) [h],further results
CCOP(=O)(OCC)C(N(OC(CN)c1ccccc1)C(C)(C)C)C(C)(C)C (stereo not drawn) [(RR/SS)-1A],> 10,,,IC50 (Vero cells; listed as (RR/SS)-1A): > 100 µM
CCOP(=O)(OCC)C(N(OC(CNC(=O)C(F)(F)F)c1ccccc1)C(C)(C)C)C(C)(C)C (stereo not drawn) [(RR/SS)-1E],> 10,5.0 ± 0.5,6,
CCOP(=O)(OCC)C(N(OC(C)c1cc[n+]([O-])cc1)C(C)(C)C)C(C)(C)C (stereo not drawn) [(RR/SS)-1d],> 10,> 8,> 8,
CCOP(=O)(OCC)C(N(OC(CN)c1ccccn1)C(C)(C)C)C(C)(C)C (stereo not drawn) [(RR/SS)-1g],> 10,1.9 ± 0.1,2,
CCOP(=O)(OCC)C(N(OC(C)c1ncc[nH]1)C(C)(C)C)C(C)(C)C (stereo not drawn) [(RR/SS)-1k],> 10,1.0 ± 0.05,1,S. mansoni Mean Survival Time (Adult S. mansoni): 1.0 ± 0.05 h
CCOP(=O)(OCC)C(N(OC(C)n1ccnc1)C(C)(C)C)C(C)(C)C (stereo not drawn) [(RR/SS)-1o],25,2.3 ± 0.2,3,
CCOP(=O)(OCC)C(N(OC(C)c1c[nH]cn1)C(C)(C)C)C(C)(C)C (stereo not drawn) [(RR/SS)-1p],,1.0 ± 0.05,1,S. mansoni Mean Survival Time (Adult S. mansoni): 1.0 ± 0.05 h; IC50 (Vero cells): > 100 µM
CCOP(=O)(OCC)C(N(OC(C)c1ccc([N+](=O)[O-])cc1)C(C)(C)C)C(C)(C)C (stereo not drawn) [(RR/SS)-1v],> 10,3.4 ± 0.2,4,
CCOP(=O)(OCC)C(N(OC(C)c1ccc(N)cc1)C(C)(C)C)C(C)(C)C (stereo not drawn) [(RR/SS)-1w],> 10,2.1 ± 0.1,3,
CCOP(=O)(OCC)C(N(OC(C)c1ccc(C(=O)OC)cc1)C(C)(C)C)C(C)(C)C (stereo not drawn) [(RR/SS)-1x],> 10,> 8,> 8,
CCOP(=O)(OCC)C(N(OC(C)c1ccc(C(=O)O)cc1)C(C)(C)C)C(C)(C)C (stereo not drawn) [(RR/SS)-1y],> 10,> 8,> 8,
"CCOP(=O)(OCC)C(N(OC(C)c1cc(-c2ccccc2)cc(-c2ccccc2)c1)C(C)(C)CO)C(C)(C)C (stereo not drawn) [(RR/SS)-2G, Diethyl(1-((1-([1,1′:3′,1′′-terphenyl]-5′-yl)ethoxy)(1-hydroxy-2-methylpropan-2-yl)amino)-2,2-dimethylpropyl)phosphonate]",,,7,"IC50 ([1]; Plasmodium falciparum, FCB1, read-out: IC50 on P. falciparum, FcB1-Columbia strain): > 10 µM; activation energy Ea ([2]; MeOH/water 2:1 pH = 7.0): 28.94 kcal/mol; re-estimated homolysis rate constant kd at 120 °C ([2]; MeOH/water 2:1 pH = 7.0): 19.5 10^−3 s^−1; homolysis rate constant kd′ ([2]; MeOH/water 2:1 pH = 7.0, 81 °C): 3.3 10^−4s^−1; half-life ([2]; buffer, pH 7, half-lifetime t1/2 at 37 °C, MeOH/water 2:1 pH = 7.0): 295 h; half-life ([2]; half-lifetime t1/2 at 37 °C, t-BuPh): 180 h; activation energy Ea ([2]; t-BuPh): 28.87 kcal/mol; re-estimated homolysis rate constant kd at 120 °C ([2]; t-BuPh): 21.1 10^−3 s^−1; homolysis rate constant kd′ ([2]; t-BuPh, 81 °C): 3.8 10^−4s^−1"
CCOP(=O)(OCC)C(N(OC(CN)c1ccccc1)C(C)(C)C)C(C)(C)C (stereo not drawn) [(RS/SR)-1A],,1.0 ± 0.05,1,S. mansoni Mean Survival Time (Adult S. mansoni): 1.0 ± 0.05 h; IC50 (Vero cells; listed as (RS/SR)-1A): 21 µM
CCOP(=O)(OCC)C(N(OC(CO)c1ccccc1)C(C)(C)C)C(C)(C)C (stereo not drawn) [(RS/SR)-1C],> 10,1.4 ± 0.2,2,
CCOP(=O)(OCC)C(N(OC(COC)c1ccccc1)C(C)(C)C)C(C)(C)C (stereo not drawn) [(RS/SR)-1D],> 10,3.8 ± 0.5,6,
CCOP(=O)(OCC)C(N(OC(CN)c1cc[n+]([O-])cc1)C(C)(C)C)C(C)(C)C (stereo not drawn) [(RS/SR)-1e],> 10,> 8,> 8,
CCOP(=O)(OCC)C(N(OC(CN)c1ccccn1)C(C)(C)C)C(C)(C)C (stereo not drawn) [(RS/SR)-1g],> 10,2.6 ± 0.3,4,
CCOP(=O)(OCC)C(N(OC(CNC(=O)C(F)(F)F)c1ccccn1)C(C)(C)C)C(C)(C)C (stereo not drawn) [(RS/SR)-1h],> 10,> 8,> 8,
CCOP(=O)(OCC)C(N(OC(CO)c1ccccn1)C(C)(C)C)C(C)(C)C (stereo not drawn) [(RS/SR)-1i],> 10,> 8,> 8,
CCOP(=O)(OCC)C(N(OC(C)c1ncc[nH]1)C(C)(C)C)C(C)(C)C (stereo not drawn) [(RS/SR)-1k],> 10,> 8,> 8,
CCOP(=O)(OCC)C(N(OC(C)n1ccnc1)C(C)(C)C)C(C)(C)C (stereo not drawn) [(RS/SR)-1o],25,1.1 ± 0.1,2,
CCOP(=O)(OCC)C(N(OC(C)c1c[nH]cn1)C(C)(C)C)C(C)(C)C (stereo not drawn) [(RS/SR)-1p],20.5,1.4 ± 0.3,3,
CCOP(=O)(OCC)C(N(OC(C)c1ccc([N+](=O)[O-])cc1)C(C)(C)C)C(C)(C)C (stereo not drawn) [(RS/SR)-1v],> 10,> 8,> 8,
CCOP(=O)(OCC)C(N(OC(C)c1ccc(N)cc1)C(C)(C)C)C(C)(C)C (stereo not drawn) [(RS/SR)-1w],> 10,> 8,> 8,
CCOP(=O)(OCC)C(N(OC(C)c1ccc(C(=O)OC)cc1)C(C)(C)C)C(C)(C)C (stereo not drawn) [(RS/SR)-1x],> 10,2.4 ± 0.3,4,
CCOP(=O)(OCC)C(N(OC(C)c1ccccc1)C(C)(C)CO)C(C)(C)C (stereo not drawn) [(RS/SR)-2z],> 10,> 8,> 8,
